Legend:
[1] = Deoxygenation of cell-free incubation medium; conditions: within minutes after administration, dose-dependent (FIG. 9A: 60 μM, 10 min)
Excerpt: Therefore, the effect of the three selected CO-RMs on oxygen consumption by NRCs was investigated.

[2] = system: horse skeletal myoglobin (Mb); experiment: Detection of CO release using the myoglobin assay (conversion of Mb to MbCO); format: biochemical; conditions: pH 7.4, 25° C.
Protocol: Changes in the Mb spectra were recorded over time at 25° C. The methanol or DMSO content of the solution never exceeded 0.5%. […] The MbCO concentration was plotted over time and directly related to the equivalents of CO released from the compounds. The half-life of CO release from the Re compounds at different pH's was then estimated from the graphs. Control experiments were run under identical conditions but without addition of the metal complexes. All manipulations were performed under a pure N2 atmosphere in a wet box.
The final methanol or DMSO content of the buffered aqueous solution never exceeded 0.5%. The conversion of Mb to carbon monoxide myoglobin (MbCO) was followed over time by measuring the changes in the absorption spectra of the Q band region of this protein at pH 7.4, 6.3 and 5.8 after addition of the Re^II complex.
The amount of MbCO formed over time after addition of the Re complex to the Mb solution was calculated according to the known extinction coefficients. The MbCO concentration was directly related to the equivalents of CO released from the compounds and these were plotted as a function of time.

[3] = Solubility in water and organic solvents; format: physicochemical
[4] = system: neonatal rat cardiomyocyte (NRC); experiment: Cytotoxicity towards neonatal rat cardiomyocytes under normal conditions; format: cell-based; conditions: normal physiological conditions, up to a tested concentration of 120 μM
Protocol: B12-CORM-2 and 4 (Scheme 3) were tested for their cytotoxic and their cytoprotective effects using the neonatal rat cardiomyocyte (NRC) cell-based model of ischemia-reperfusion injury (I/R) as previously described (Zobi et al., Inorg. Chem. 2010, 49, 7313-7322). The membrane-impermeable ReII-CORMs studied so far were non-toxic in the micromolar concentration range. To test for the possible uptake of B12-CO-RMs by cells incubation of NRCs with 30 μM of B12-CORM-2 and 4 was performed and cell culture medium samples were collected over 180 min of incubation. […] The fraction of dead cells tended to decrease in the presence of CORMs, but, due to the high variability, the differences were not statistically significant (2.7±1.7% in control vs 1.1±0.3 and 1.0±0.2 in the presence of B12-CORM-2 and B12-CORM-4 respectively).

[5] = system: intracellular reduced glutathione (GSH) in NRCs; experiment: Intracellular reduced glutathione (GSH) in NRCs after ischemia and 10 min of reperfusion; format: cell-based, rat; conditions: 30 μM, 10 min after the onset of reperfusion
Protocol: FIG. 9. Regulation of oxygen availability and the intracellular reduced glutathione content by Re-CORMs. A: Reduction in oxygen content in the incubation medium within 10 min after addition of 60 μM of 2, 6 and B12-CORM-2; N=6-8. Given are means±SEM. B: Intracellular reduced glutathione (GSH) content in NRCs exposed to 16 h of ischemia and 10 min of reperfusion in the presence or absence of CO-RMs. N=4 Data are means±SEM.
Oxidative stress triggered by acute hyperoxygenation is a hallmark of reperfusion injury. Based on the findings presented in FIG. 9A selected CORMs may be viewed as oxygen scavengers which, when applied early on during reperfusion, may reduce the cellular oxidative damage. To test this hypothesis intracellular reduced glutathione (GSH) levels were determined in cells 10 min after the “onset of reperfusion” in the presence or absence of 30 μM 2, 6 and B12-CORM-2. […] (FIG. 9B). This acute antioxidative effect of 2 most likely reflects the ability of the intermediates formed upon CO release to react with oxygen forming ReO4^−.

[6] = system: neonatal rat ventricular cardiomyocytes (NRCs); conditions: Zobi et al., Inorg. Chem. 2010, 49, 7313-7322; cited from earlier work
[7] = Stability under aerobic conditions (solid, solution); format: physicochemical

| SMILES | cytotoxicity towards NRCs [4] | cytoprotective effects against I/R injury [6] | stability as solids under aerobic conditions [7] | other results |
| --- | --- | --- | --- | --- |
| CC[N+](CC)(CC)CC.CC[N+](CC)(CC)CC.[Br][Re-2]([Br])([Br])[Br].[C-]#[O+].[C-]#[O+] [Compound 2, [Et4N]2[Re^IIBr4(CO)2]] | no cytotoxicity | substantial cytoprotective effects | – | deoxygenation of the cell-free medium [1]: resulted in deoxygenation; time to saturation of Mb with CO liberated from the compound [2]: ≤ 30 min; solubility in water [3]: well soluble in water; intracellular reduced glutathione (GSH) levels [5]: increase |
| Cn1ccnc1.Cn1ccnc1.[Br][Re][Br].[C-]#[O+].[C-]#[O+] [Compound 3, [ReBr2(CO)2(MeIm)2]] | – | – | slowly decomposed over time | – |
| [Br][Re][Br].[C-]#[O+].[C-]#[O+].c1ccc2[nH]cnc2c1.c1ccc2[nH]cnc2c1 [Compound 4, [ReBr2(CO)2(BzIm)2]] | – | – | indefinitely stable | – |
| Cc1ccncc1.Cc1ccncc1.[Br][Re][Br].[C-]#[O+].[C-]#[O+] [Compound 5, [ReBr2(CO)2(4-pic)2]] | – | – | indefinitely stable | – |
| [Br][Re]([Br])([n+]1cc[nH]c1)[n+]1cc[nH]c1.[C-]#[O+].[C-]#[O+] [Compound 6, cis-trans-[Re^II(CO)2Br2(Im)2]] | no cytotoxicity | substantial cytoprotective effects | – | – |

Reference: patent publication US9512156B2, “Carbon monoxide releasing rhenium compounds for medical use” (UNIVERSITY OF ZURICH, priority 2010, dated 2016)
